In the OligoGym collection one finds TLR7 signal (NF-kB luciferase) (% of resiquimod alone) and TLR8 potentiation (NF-kB luciferase) (fold of resiquimod alone) data, which are given here for 10 substances.

HELM strings list units from the 5' end as sugar, base in round brackets, then linkage (d deoxyribose, r ribose, m 2'-O-methyl, p phosphodiester). [sp] = phosphorothioate linkage

The target of data set [1] is CTNNB1. Description: HEK293-TLR7, 100 nM ASO, then resiquimod.
The target of data set [2] is CTNNB1. In words: HEK293-TLR8, 100 nM ASO, then resiquimod.

For “RNA1{m(U)[sp].m(U)[sp].m(U)[sp].m(A)[sp].m(U)[sp].d(T)[sp].d(C)[sp].d(A)[sp].d(G)[sp].d(A)[sp].d(T)[sp].d(T)[sp].d(A)[sp].d(C)[sp].d(A)[sp].m(A)[sp].m(U)[sp].m(U)[sp].m(A)[sp].m(A)}$$$$”, in the data set with CTNNB1 [1], the TLR7 signal (NF-kB luciferase) (% of resiquimod alone) was determined as 53.4. The TLR8 potentiation (NF-kB luciferase) (fold of resiquimod alone) with CTNNB1 [2] amounted to 3.68.

“RNA1{m(U)[sp].m(G)[sp].m(G)[sp].m(C)[sp].m(A)[sp].d(G)[sp].d(G)[sp].d(C)[sp].d(T)[sp].d(C)[sp].d(A)[sp].d(G)[sp].d(T)[sp].d(G)[sp].d(A)[sp].m(U)[sp].m(G)[sp].m(U)[sp].m(C)[sp].m(U)}$$$$” returned a TLR7 signal (NF-kB luciferase) (% of resiquimod alone) in the data set with CTNNB1 [1] of 50.4. The TLR8 potentiation (NF-kB luciferase) (fold of resiquimod alone) with CTNNB1 [2] came to 1.73.

In the case of “RNA1{m(C)[sp].m(U)[sp].m(C)[sp].m(A)[sp].m(U)[sp].d(T)[sp].d(A)[sp].d(T)[sp].d(A)[sp].d(T)[sp].d(T)[sp].d(T)[sp].d(A)[sp].d(C)[sp].d(T)[sp].m(A)[sp].m(A)[sp].m(A)[sp].m(G)[sp].m(C)}$$$$”, the TLR7 signal (NF-kB luciferase) (% of resiquimod alone) in the data set with CTNNB1 [1] came out at 93.5. Moreover, the TLR8 potentiation (NF-kB luciferase) (fold of resiquimod alone) with CTNNB1 [2] was 3.46.

Consider “RNA1{m(A)[sp].m(C)[sp].m(U)[sp].m(G)[sp].m(U)[sp].d(G)[sp].d(T)[sp].d(A)[sp].d(G)[sp].d(A)[sp].d(T)[sp].d(G)[sp].d(G)[sp].d(G)[sp].d(A)[sp].m(U)[sp].m(C)[sp].m(U)[sp].m(G)[sp].m(C)}$$$$”, for which the TLR7 signal (NF-kB luciferase) (% of resiquimod alone) with CTNNB1 [1] was found to be 99.8. In addition, in the data set with CTNNB1 [2], the TLR8 potentiation (NF-kB luciferase) (fold of resiquimod alone) is 3.43.

For “RNA1{m(G)[sp].m(G)[sp].m(G)[sp].m(A)[sp].m(A)[sp].d(A)[sp].d(G)[sp].d(G)[sp].d(T)[sp].d(T)[sp].d(A)[sp].d(T)[sp].d(G)[sp].d(C)[sp].d(A)[sp].m(A)[sp].m(G)[sp].m(G)[sp].m(U)[sp].m(C)}$$$$”, the TLR7 signal (NF-kB luciferase) (% of resiquimod alone) with CTNNB1 [1] worked out at 51.4. The TLR8 potentiation (NF-kB luciferase) (fold of resiquimod alone) with CTNNB1 [2] amounted to 1.76.

In the case of “RNA1{m(G)[sp].m(C)[sp].m(C)[sp].m(G)[sp].m(C)[sp].d(T)[sp].d(T)[sp].d(T)[sp].d(T)[sp].d(C)[sp].d(T)[sp].d(G)[sp].d(T)[sp].d(C)[sp].d(T)[sp].m(G)[sp].m(G)[sp].m(U)[sp].m(U)[sp].m(C)}$$$$”, the TLR7 signal (NF-kB luciferase) (% of resiquimod alone) with CTNNB1 [1] turned out to be 70.5. Moreover, the TLR8 potentiation (NF-kB luciferase) (fold of resiquimod alone) with CTNNB1 [2] was determined as 2.

Take “RNA1{m(G)[sp].m(C)[sp].m(U)[sp].m(U)[sp].m(A)[sp].d(T)[sp].d(T)[sp].d(T)[sp].d(T)[sp].d(A)[sp].d(A)[sp].d(G)[sp].d(C)[sp].d(A)[sp].d(T)[sp].m(A)[sp].m(U)[sp].m(U)[sp].m(A)[sp].m(A)}$$$$”: in the data set with CTNNB1 [1], the TLR7 signal (NF-kB luciferase) (% of resiquimod alone) came to 41.1. The TLR8 potentiation (NF-kB luciferase) (fold of resiquimod alone) in the data set with CTNNB1 [2] worked out at 1.9.

The substance “RNA1{m(G)[sp].m(C)[sp].m(G)[sp].m(U)[sp].m(G)[sp].d(T)[sp].d(C)[sp].d(T)[sp].d(G)[sp].d(G)[sp].d(A)[sp].d(A)[sp].d(G)[sp].d(C)[sp].d(T)[sp].m(U)[sp].m(C)[sp].m(C)[sp].m(U)[sp].m(U)}$$$$” yielded a TLR7 signal (NF-kB luciferase) (% of resiquimod alone) with CTNNB1 [1] of 40.7. Moreover, in the data set with CTNNB1 [2], the TLR8 potentiation (NF-kB luciferase) (fold of resiquimod alone) is 0.91.

As for “RNA1{m(A)[sp].m(U)[sp].m(U)[sp].m(U)[sp].m(U)[sp].d(A)[sp].d(A)[sp].d(G)[sp].d(C)[sp].d(A)[sp].d(T)[sp].d(A)[sp].d(T)[sp].d(T)[sp].d(A)[sp].m(A)[sp].m(A)[sp].m(A)[sp].m(A)[sp].m(G)}$$$$”, the TLR7 signal (NF-kB luciferase) (% of resiquimod alone) in the data set with CTNNB1 [1] worked out at 47. In the data set with CTNNB1 [2], the TLR8 potentiation (NF-kB luciferase) (fold of resiquimod alone) came to 2.37.

For the substance “RNA1{m(U)[sp].m(C)[sp].m(A)[sp].m(U)[sp].m(U)[sp].d(A)[sp].d(T)[sp].d(A)[sp].d(T)[sp].d(T)[sp].d(T)[sp].d(A)[sp].d(C)[sp].d(T)[sp].d(A)[sp].m(A)[sp].m(A)[sp].m(G)[sp].m(C)[sp].m(U)}$$$$”, in the data set with CTNNB1 [1], the TLR7 signal (NF-kB luciferase) (% of resiquimod alone) was found to be 65.5. Also, the TLR8 potentiation (NF-kB luciferase) (fold of resiquimod alone) with CTNNB1 [2] was 4.22.
